Experimental data taken from ChEMBL document CHEMBL1133184, “SAR of 9-amino-1,2,3,4-tetrahydroacridine-based acetylcholinesterase inhibitors: synthesis, enzyme inhibitory activity, QSAR, and structure-based CoMFA of tacrine analogues” (J Med Chem, 2000).

Key:
Acetylcholinesterase [1] = target: T1, Acetylcholinesterase (Homo sapiens, UniProt P22303)
Description: Experimental pIC50 values for the inhibition of acetylcholinesterase

Acetylcholinesterase [2] = target: T1, Acetylcholinesterase; remark: listed apart in the source
Description: Inhibitory activity against human erythrocyte acetylcholinesterase

T1 sequence (P22303 whole entry): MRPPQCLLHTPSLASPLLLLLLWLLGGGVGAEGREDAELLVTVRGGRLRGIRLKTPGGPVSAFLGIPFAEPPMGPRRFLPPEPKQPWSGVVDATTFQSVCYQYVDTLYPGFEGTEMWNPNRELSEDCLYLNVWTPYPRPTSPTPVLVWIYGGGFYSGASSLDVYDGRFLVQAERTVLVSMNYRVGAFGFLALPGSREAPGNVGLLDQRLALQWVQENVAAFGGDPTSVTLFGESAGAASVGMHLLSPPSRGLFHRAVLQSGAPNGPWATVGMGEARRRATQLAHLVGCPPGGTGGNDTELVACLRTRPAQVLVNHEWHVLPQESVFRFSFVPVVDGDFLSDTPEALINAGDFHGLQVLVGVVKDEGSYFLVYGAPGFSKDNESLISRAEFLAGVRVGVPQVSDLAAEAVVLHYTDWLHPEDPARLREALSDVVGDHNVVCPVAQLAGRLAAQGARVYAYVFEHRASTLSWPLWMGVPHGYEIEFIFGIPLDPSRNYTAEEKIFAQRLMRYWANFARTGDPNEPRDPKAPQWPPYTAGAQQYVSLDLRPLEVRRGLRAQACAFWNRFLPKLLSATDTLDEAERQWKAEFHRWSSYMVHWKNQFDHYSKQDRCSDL

SMILES: Nc1c2c(nc3ccccc13)-c1ccc(F)cc1C2
- IC50 (Acetylcholinesterase [1]): 0.437 µM

SMILES: CCCCCCCNc1c2c(nc3cc([N+](=O)[O-])ccc13)CCCC2
- IC50 (Acetylcholinesterase [2]): 0.29 µM
- IC50 (Acetylcholinesterase [1]): 0.295 µM

SMILES: COc1ccc2c(N)c3c(nc2c1)CCCC3
- IC50 (Acetylcholinesterase [2]): 0.35 µM
- IC50 (Acetylcholinesterase [1]): 0.355 µM

SMILES: O=[N+]([O-])c1ccc2nc3c(c(NCc4ccccc4)c2c1)CCCC3
- IC50 (Acetylcholinesterase [2]): 1.6 µM
- IC50 (Acetylcholinesterase [1]): 1.58 µM

SMILES: Clc1ccc2c(NCc3ccccc3)c3c(nc2c1)CCCC3
- IC50 (Acetylcholinesterase [2]): 0.17 µM
- IC50 (Acetylcholinesterase [1]): 0.17 µM

SMILES: Nc1c2c(nc3cc(Cl)ccc13)-c1ccccc1C2
- IC50 (Acetylcholinesterase [1]): 6.61 µM

SMILES: CCCCCCCNc1c2c(nc3cc(Cl)ccc13)CCCC2
- IC50 (Acetylcholinesterase [2]): 0.013 µM
- IC50 (Acetylcholinesterase [1]): 0.0132 µM

SMILES: Nc1c2c(nc3ccc([N+](=O)[O-])cc13)CCCC2
- IC50 (Acetylcholinesterase [2]): 3 µM
- IC50 (Acetylcholinesterase [1]): 3.02 µM

SMILES: Cc1ccc2c(N)c3c(nc2c1)CCCC3
- IC50 (Acetylcholinesterase [2]): 0.1 µM
- IC50 (Acetylcholinesterase [1]): 0.1 µM

SMILES: CCCCCCCNc1c2c(nc3cc(C)ccc13)CCCC2
- IC50 (Acetylcholinesterase [2]): 0.13 µM
- IC50 (Acetylcholinesterase [1]): 0.129 µM

SMILES: Nc1ccc2nc3c(c(N)c2c1)CCCC3
- IC50 (Acetylcholinesterase [2]): 3.8 µM
- IC50 (Acetylcholinesterase [1]): 3.8 µM

SMILES: O=[N+]([O-])c1ccc2c(NCc3ccccc3)c3c(nc2c1)CCCC3
- IC50 (Acetylcholinesterase [2]): 4.8 µM
- IC50 (Acetylcholinesterase [1]): 4.79 µM

SMILES: Nc1c2c(nc3cc(F)ccc13)CCCC2
- IC50 (Acetylcholinesterase [2]): 0.087 µM
- IC50 (Acetylcholinesterase [1]): 0.0871 µM

SMILES: CCCCCCCNc1c2c(nc3cc(F)ccc13)CCCC2
- IC50 (Acetylcholinesterase [2]): 0.045 µM
- IC50 (Acetylcholinesterase [1]): 0.0457 µM

SMILES: CCCCCCCNc1c2c(nc3ccc(C)cc13)CCCC2
- IC50 (Acetylcholinesterase [2]): 0.39 µM
- IC50 (Acetylcholinesterase [1]): 0.389 µM

SMILES: Nc1c2c(nc3cc(Br)ccc13)CCCC2
- IC50 (Acetylcholinesterase [2]): 0.066 µM

SMILES: COc1cc2nc3c(c(N)c2cc1OC)CCCC3
- IC50 (Acetylcholinesterase [2]): 5.2 µM
- IC50 (Acetylcholinesterase [1]): 5.13 µM

SMILES: Nc1c2c(nc3cc(Cl)c(Cl)cc13)CCCC2
- IC50 (Acetylcholinesterase [2]): 0.47 µM
- IC50 (Acetylcholinesterase [1]): 0.479 µM

SMILES: CCCCCCCNc1c2c(nc3cc(OC)ccc13)CCCC2
- IC50 (Acetylcholinesterase [2]): 0.46 µM
- IC50 (Acetylcholinesterase [1]): 0.468 µM

SMILES: Nc1c2c(nc3ccc(Cl)cc13)CCCC2
- IC50 (Acetylcholinesterase [2]): 0.55 µM
- IC50 (Acetylcholinesterase [1]): 0.55 µM

SMILES: Cc1ccc2nc3c(c(N)c2c1)CCCC3
- IC50 (Acetylcholinesterase [2]): 8.1 µM
- IC50 (Acetylcholinesterase [1]): 8.13 µM

SMILES: Cc1ccc2c(NCc3ccccc3)c3c(nc2c1)CCCC3
- IC50 (Acetylcholinesterase [2]): 0.75 µM
- IC50 (Acetylcholinesterase [1]): 0.741 µM

SMILES: COc1cccc2c1Cc1c-2nc2ccccc2c1N
- IC50 (Acetylcholinesterase [1]): 1.66 µM

SMILES: Cc1ccc2nc3c(c(NCc4ccccc4)c2c1)CCCC3
- IC50 (Acetylcholinesterase [2]): 3.7 µM
- IC50 (Acetylcholinesterase [1]): 3.72 µM
